Laboratory results published in patent US20170190671A1, “BIS(ARYL)CATECHOL DERIVATIVES AS HERBICIDES” (E I DU PONT DE NEMOURS AND COMPANY, priority 2014, published 2017).

Assays:
Format in all cases: in vivo
[1] = system: Italian ryegrass (Lolium multiflorum); experiment: Test A postemergence; conditions: 0 to 100 scale
In short: (§1)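 Visual injury scored 0–100 (100 = complete control) against untreated controls about 10 days after treatment in a greenhouse. Test chemicals, formulated with surfactant in non-phytotoxic solvent, were sprayed on soil preemergence or on 2-10 cm, one- to two-leaf plants postemergence.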

[2] = system: corn (Zea mays); experiment: Test A postemergence; conditions: 0 to 100 scale
In short: as §1

[3] = system: kochia (Kochia scoparia); experiment: Test A postemergence; conditions: 0 to 100 scale
In short: as §1

[4] = system: giant foxtail (Setaria faberii); experiment: Test A postemergence; conditions: 0 to 100 scale
In short: as §1

[5] = system: pigweed (Amaranthus retroflexus); experiment: Test A postemergence; conditions: 0 to 100 scale
In short: as §1

[6] = system: galium (catchweed bedstraw, Galium aparine); experiment: Test A postemergence; conditions: 0 to 100 scale
In short: as §1

[7] = system: ragweed (common ragweed, Ambrosia elatior); experiment: Test A postemergence; conditions: 0 to 100 scale
In short: as §1

[8] = system: wheat (Triticum aestivum); experiment: Test A postemergence; conditions: 0 to 100 scale
In short: as §1

[9] = system: blackgrass (Alopecurus myosuroides); experiment: Test A postemergence; conditions: 0 to 100 scale
In short: as §1

[10] = system: barnyardgrass (Echinochloa crus-galli); experiment: Test A postemergence; conditions: 0 to 100 scale
In short: as §1

[11] = system: Italian ryegrass (Lolium multiflorum); experiment: Test A preemergence; conditions: 0 to 100 scale (0 no effect, 100 complete control)
In short: as §1

[12] = system: kochia (Kochia scoparia); experiment: Test A preemergence; conditions: 0 to 100 scale (0 no effect, 100 complete control)
In short: as §1

[13] = system: giant foxtail (Setaria faberii); experiment: Test A preemergence; conditions: 0 to 100 scale (0 no effect, 100 complete control)
In short: as §1

[14] = system: pigweed (Amaranthus retroflexus); experiment: Test A preemergence; conditions: 0 to 100 scale (0 no effect, 100 complete control)
In short: as §1

[15] = system: ragweed (common ragweed, Ambrosia elatior); experiment: Test A preemergence; conditions: 0 to 100 scale (0 no effect, 100 complete control)
In short: as §1

[16] = system: barnyardgrass (Echinochloa crus-galli); experiment: Test A preemergence; conditions: for Barnyardgrass plant response rating: 0 to 100 scale (0 no effect, 100 complete control); for Plant response rating, Barnyardgrass: 0 to 100 scale
In short: as §1

[17] = system: rice (Oryza sativa); experiment: Test B flooded paddy; conditions: 250 g ai/ha, Flood, 13 to 15 days, scale 0 (no effect) to 100 (complete control)
From the text: (§2) At time of treatment, test pots were flooded to 3 cm above the soil surface, treated by application of test compounds directly to the paddy water, and then maintained at that water depth for the duration of the test. Treated plants and controls were maintained in a greenhouse for 13 to 15 days, after which time all species were compared to controls and visually evaluated. […] A dash (-) response means no test result.

[18] = system: ducksalad (Heteranthera limosa); experiment: Test B flooded paddy; conditions: 250 g ai/ha, Flood, 13 to 15 days, scale 0 (no effect) to 100 (complete control)
From the text: as §2

[19] = system: sedge, umbrella (small-flower umbrella sedge, Cyperus difformis); experiment: Test B flooded paddy; conditions: 250 g ai/ha, Flood, 13 to 15 days, scale 0 (no effect) to 100 (complete control)
From the text: as §2

[20] = system: barnyardgrass (Echinochloa crus-galli); experiment: Test B flooded paddy; conditions: 250 g ai/ha, Flood, 13 to 15 days, scale 0 (no effect) to 100 (complete control)
From the text: as §2

Row | Structure (SMILES) | Plant response rating, Ryegrass, Italian ([1]; 31 g ai/ha) | Plant response rating, Ryegrass, Italian ([1]; 125 g ai/ha) | Plant response rating, Corn ([2]; 31 g ai/ha) | Plant response rating, Corn ([2]; 125 g ai/ha) | Plant response rating, Kochia ([3]; 31 g ai/ha) | Plant response rating, Kochia ([3]; 125 g ai/ha) | Plant response rating, Foxtail, Giant ([4]; 31 g ai/ha) | Plant response rating, Foxtail, Giant ([4]; 125 g ai/ha) | Plant response rating, Pigweed ([5]; 31 g ai/ha) | Plant response rating, Pigweed ([5]; 125 g ai/ha) | Plant response rating, Galium ([6]; 31 g ai/ha) | Plant response rating, Galium ([6]; 125 g ai/ha) | Plant response rating, Ragweed ([7]; 31 g ai/ha) | Plant response rating, Ragweed ([7]; 125 g ai/ha) | Plant response rating, Wheat ([8]; 31 g ai/ha) | Plant response rating, Wheat ([8]; 125 g ai/ha) | Plant response rating, Blackgrass ([9]; 31 g ai/ha) | Plant response rating, Blackgrass ([9]; 125 g ai/ha) | Plant response rating, Barnyardgrass ([10]; 31 g ai/ha) | Plant response rating, Barnyardgrass ([10]; 125 g ai/ha) | other results
1 | Fc1ccc(F)c(Oc2ncc(C(F)(F)F)cn2)c1Oc1ncc(C(F)(F)F)cn1 [Compound 30] | 0 | 0 | 0 | 0 | 0 | 0 | 0 | 10 | 60 | 70 | 60 | 70 | 0 | 0 | 0 | 0 | 0 | 30 | 0 | 0 | Ryegrass, Italian plant response rating ([11]; 31 g ai/ha): 0; Ryegrass, Italian plant response rating ([11]; 125 g ai/ha): 0; Kochia plant response rating ([12]; 31 g ai/ha): 10; Kochia plant response rating ([12]; 125 g ai/ha): 20; Foxtail, Giant plant response rating ([13]; 31 g ai/ha): 10; Foxtail, Giant plant response rating ([13]; 125 g ai/ha): 50; Pigweed plant response rating ([14]; 31 g ai/ha): 90; Pigweed plant response rating ([14]; 125 g ai/ha): 100; Ragweed plant response rating ([15]; 31 g ai/ha): 0; Ragweed plant response rating ([15]; 125 g ai/ha): 0; Barnyardgrass plant response rating ([16]; 31 g ai/ha): 0; Plant response rating, Barnyardgrass ([16]; 125 g ai/ha): 10; Plant response rating, Rice [17]: 0; Plant response rating, Ducksalad [18]: 0; Plant response rating, Sedge, Umbrella [19]: 0; Plant response rating, Barnyardgrass [20]: 0
2 | N#Cc1cccc(Oc2ncc(Cl)cn2)c1Oc1ccc(OC(F)(F)F)cc1 [Compound 33] | 0 | 10 | 0 | 10 | 20 | 40 | 10 | 20 | 30 | 80 | 10 | 30 | 0 | 10 | 0 | 0 | 0 | 10 | 0 | 10 | Ryegrass, Italian plant response rating ([11]; 31 g ai/ha): 0; Ryegrass, Italian plant response rating ([11]; 125 g ai/ha): 0; Kochia plant response rating ([12]; 31 g ai/ha): 0; Kochia plant response rating ([12]; 125 g ai/ha): 0; Foxtail, Giant plant response rating ([13]; 31 g ai/ha): 10; Foxtail, Giant plant response rating ([13]; 125 g ai/ha): 40; Pigweed plant response rating ([14]; 31 g ai/ha): 0; Pigweed plant response rating ([14]; 125 g ai/ha): 30; Ragweed plant response rating ([15]; 31 g ai/ha): 0; Ragweed plant response rating ([15]; 125 g ai/ha): 0; Barnyardgrass plant response rating ([16]; 31 g ai/ha): 0; Plant response rating, Barnyardgrass ([16]; 125 g ai/ha): 10; Plant response rating, Rice [17]: 0; Plant response rating, Ducksalad [18]: 0; Plant response rating, Sedge, Umbrella [19]: 0; Plant response rating, Barnyardgrass [20]: 0
3 | N#Cc1cccc(Oc2ncc(C(F)(F)F)cn2)c1Oc1ncc(C(F)(F)F)cn1 [Compound 35] | 0 | 30 | 0 | 30 | 60 | 90 | 0 | 20 | 70 | 100 | 40 | 70 | 10 | 20 | 0 | 0 | 10 | 50 | 0 | 40 | Ryegrass, Italian plant response rating ([11]; 31 g ai/ha): 0; Ryegrass, Italian plant response rating ([11]; 125 g ai/ha): 10; Kochia plant response rating ([12]; 31 g ai/ha): 0; Kochia plant response rating ([12]; 125 g ai/ha): 60; Foxtail, Giant plant response rating ([13]; 31 g ai/ha): 30; Foxtail, Giant plant response rating ([13]; 125 g ai/ha): 90; Pigweed plant response rating ([14]; 31 g ai/ha): 100; Pigweed plant response rating ([14]; 125 g ai/ha): 100; Ragweed plant response rating ([15]; 31 g ai/ha): 0; Ragweed plant response rating ([15]; 125 g ai/ha): 10; Barnyardgrass plant response rating ([16]; 31 g ai/ha): 0; Plant response rating, Barnyardgrass ([16]; 125 g ai/ha): 50; Plant response rating, Rice [17]: 40; Plant response rating, Ducksalad [18]: 60; Plant response rating, Sedge, Umbrella [19]: 60; Plant response rating, Barnyardgrass [20]: 0
4 | Fc1ccc(Oc2ccc(C(F)(F)F)cn2)c(Oc2ncc(Cl)cn2)c1 [Compound 45, 5-chloro-2-[5-fluoro-[2-[5-(trifluoromethyl)pyridin-2-yl]oxy]phenoxy]pyrimidine] | 0 | 0 | 0 | 30 | 20 | 80 | 0 | 0 | 20 | 20 | 60 | 70 | 0 | 20 | 0 | 20 | 0 | 30 | 0 | 0 | Ryegrass, Italian plant response rating ([11]; 31 g ai/ha): 0; Ryegrass, Italian plant response rating ([11]; 125 g ai/ha): 0; Kochia plant response rating ([12]; 31 g ai/ha): 0; Kochia plant response rating ([12]; 125 g ai/ha): 10; Foxtail, Giant plant response rating ([13]; 31 g ai/ha): 30; Foxtail, Giant plant response rating ([13]; 125 g ai/ha): 100; Pigweed plant response rating ([14]; 31 g ai/ha): 0; Pigweed plant response rating ([14]; 125 g ai/ha): 0; Ragweed plant response rating ([15]; 31 g ai/ha): 0; Ragweed plant response rating ([15]; 125 g ai/ha): 10; Barnyardgrass plant response rating ([16]; 31 g ai/ha): 0; Barnyardgrass plant response rating ([16]; 125 g ai/ha): 30; Plant response rating, Rice [17]: 0; Plant response rating, Ducksalad [18]: 75; Plant response rating, Sedge, Umbrella [19]: 70; Plant response rating, Barnyardgrass [20]: 0
